Assay results as given in patent US20120083522A1, “MODULATION OF INFLAMMATORY RESPONSES BY FACTOR XI” (Isis Pharmaceuitcals, inc., priority 2009, published 2012).
In the oligonucleotide strings, read from the 5' end, every base follows the letter of its sugar. An asterisk marks phosphorothioate; unmarked linkages are phosphodiester. Other units and linkages are bracketed, terminal groups are in braces. A string of capitals states the bases alone. e = 2'-O-(2-methoxyethyl) (MOE); [5mC] = 5-methylcytosine; d = 2'-deoxy (DNA)

What was measured:
[1] = set-up: species or system Sprague-Dawley rats; settings: rat, in vivo, sc, 20 mg/kg
Protocol: The concentration of the full-length oligonucleotide as well as the total oligonucleotide concentration (including the degraded form) was measured. The method used is a modification of previously published methods (Leeds et al., 1996; Geary et al., 1999) which consist of a phenol-chloroform (liquid-liquid) extraction followed by a solid phase extraction. An internal standard (ISIS 355868, a 27-mer 2′-O-methoxyethyl modified phosphorothioate oligonucleotide, […], designated herein as SEQ ID NO: 270) was added prior to extraction. […] The results are presented in Tables 98 and 99, expressed as μg/g liver or kidney tissue.

human Factor XI mRNA [2] = experiment: Antisense inhibition in HepG2 cells by microwalk gapmers, 75 nM, lipofectin (Example 3); type: cell-based; settings: HepG2 cells, 75 nM, oligonucleotides targeted to nucleobases 1275 to 1318 of SEQ ID NO: 1
Outline: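 HepG2 cells (10,000 per well) were transfected with 75 nM gapmer using lipofectin and treated for about 24 h. Factor XI mRNA was quantified by real-time PCR, normalized to RiboGreen total RNA and expressed as percent inhibition versus untreated controls.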

human Factor XI mRNA [3] = experiment: Antisense inhibition in HepG2 cells by microwalk gapmers, 8,000 nM, electroporation (Example 14); type: cell-based; settings: HepG2 cells, 8,000 nM
Outline: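 HepG2 cells electroporated with 8,000 nM 2′-MOE phosphorothioate gapmer (5-10-5, 5-8-5 or 6-8-6). Factor XI mRNA measured after ~24 h by qRT-PCR, normalised to RIBOGREEN total RNA. Reported as percent inhibition versus untreated cells.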

Factor XI protein [4] = experiment: Cynomolgus monkeys: plasma Factor XI protein ELISA (Example 29); type: in vivo; settings: for Inhibition of Factor XI protein relative to the PBS control: escalating doses 5, 10, 25 mg/kg s.c.
Protocol: (§1) Groups, each consisting of two male and three female monkeys, were injected subcutaneously with ISIS 416838, ISIS 416850, ISIS 416858, ISIS 416864, or ISIS 417002 in escalating doses. Antisense oligonucleotide was administered to the monkeys at 5 mg/kg three times per a week for week 1; 5 mg/kg twice per week for weeks 2 and 3; 10 mg/kg three times per week for week 4; 10 mg/kg twice per week for weeks 5 and 6; 25 mg/kg three times per week for week 7; and 25 mg/kg twice per week for weeks 8, 9, 10, 11, and 12. One control group, consisting of two male and three female monkeys, was injected subcutaneously with PBS according to the same dosing regimen. An additional experimental group, consisting of two male and three female monkeys, was injected subcutaneously with ISIS 416850 in a chronic, lower dose regimen. Antisense oligonucleotide was administered to the monkeys at 5 mg/kg three times per week for week 1; 5 mg/kg twice per week for week 2 and 3; 10 mg/kg three times per week for week 4; and 10 mg/kg twice per week for weeks 5 to 12. Body weights were measured weekly. Blood samples were collected 14 days and 5 days before the start of treatment and subsequently once per week for Factor XI protein activity analysis in plasma and measurement of various hematologic factors. On day 85, the monkeys were euthanized by exsanguination while under deep anesthesia, and organs harvested for further analysis.
(§2) Plasma samples from all monkey groups taken on different days were analyzed by a sandwich-style ELISA assay (Affinity Biologicals Inc.) using an affinity-purified polyclonal anti-Factor XI antibody as the capture antibody and a peroxidase-conjugated polyclonal anti-Factor XI antibody as the detecting antibody. Monkey plasma was diluted 1:50 for the assay. Peroxidase activity was expressed by incubation with the substrate o-phenylenediamine. The color produced was quantified using a microplate reader at 490 nm and was considered to be proportional to the concentration of Factor XI in the samples.
The results are presented in Table 122, expressed as percentage reduction relative to that of the PBS control.

Factor XI protein [5] = experiment: Cynomolgus monkeys: plasma Factor XI protein ELISA (Example 30); type: in vivo; settings: cynomolgus monkeys, Example 30
Protocol: (§3) Groups, each consisting of two male and two female monkeys, were injected subcutaneously with 25 mg/kg of ISIS 416850, ISIS 449709, ISIS 445522, ISIS 449710, ISIS 449707, ISIS 449711, ISIS 449708, 416858 and ISIS 445531. Antisense oligonucleotide was administered to the monkeys at 25 mg/kg three times per week for week 1 and 25 mg/kg twice per week for weeks 2 to 8. A control group, consisting of two male and two female monkeys was injected subcutaneously with PBS according to the same dosing regimen. Body weights were taken 14 days and 7 days before the start of treatment and were then measured weekly throughout the treatment period. Blood samples were collected 14 days and 5 days before the start of treatment and subsequently several times during the dosing regimen for measurement of various hematologic factors. On day 55, the monkeys were euthanized by exsanguination while under deep anesthesia, and organs harvested for further analysis.
as §2
The results are presented in Table 148, expressed as percentage reduction relative to that of the PBS control.

Factor XI mRNA = experiment: Cynomolgus monkeys, 25 mg/kg: liver Factor XI RNA analysis (Example 30); type: in vivo; settings: cynomolgus monkeys, day 55, in comparison to the PBS control
Protocol: as §3
On day 55, RNA was extracted from liver tissue for real-time PCR analysis of Factor XI using primer probe set LTS00301. Results are presented as percent inhibition of Factor XI, relative to PBS control.

[6] = tested on: IL-1β, IL-6, IFN-γ, TNF-α, IL-8, MIP-1α, MCP-1, MIP-10, RANTES; experiment: Cynomolgus monkeys: cytokine and chemokine assays (Example 30); type: in vivo
Protocol: as §3
Blood samples obtained from all monkey groups were sent to Pierce Biotechnology (Woburn, Mass.) for measurements of chemokine and cytokine levels. Levels of IL-1β, IL-6, IFN-γ, and TNF-α were measured using the respective primate antibodies and levels of IL-8, MIP-1α, MCP-1, MIP-10 and RANTES were measured using the respective cross-reacting human antibodies. Measurements were taken 14 days before the start of treatment and on day 55, when the monkeys were euthanized.

[7] = Cynomolgus monkeys: body and organ weights (Example 29); type: in vivo; settings: for Body weight: escalating doses 5, 10, 25 mg/kg s.c.
Protocol: as §1
Body weights were taken once weekly throughout the dosing regimen. […] Organ weights were taken after the animals were euthanized and livers, kidneys and spleens were harvested and weighed. […] The ISIS oligonucleotide, ISIS 416850, given with the chronic dose regimen is distinguished from the other oligonucleotides with an asterisk (*).

[8] = Cynomolgus monkeys: hematology assays (Example 29); type: in vivo
Protocol: as §1
The ISIS oligonucleotide, ISIS 416850, given with the chronic dose regimen is distinguished from the other oligonucleotides with an asterisk (*).

[9] = Tolerability in CD1 mice: body and organ weight (Example 25); type: in vivo; settings: 50 mg/kg s.c. twice per week for 6 weeks; for Kidney weight as percentage of body weight / Liver weight as percentage of body weight / Spleen weight as percentage of body weight: end of study
[10] = day −14 (before start of treatment)

416848 (antisense CACAGTTTCTGGCAGGCCTC; 5-10-5 gapmer, wing sugar chemistry not given here, further chemistry not given here) [compound 416848]
Half-life in the liver and kidney [1]: 24 days | % inhibition of human Factor XI mRNA levels (human Factor XI mRNA [2]): 86% | Percent inhibition of human Factor XI mRNA levels (human Factor XI mRNA [3]): 87%

416852 (antisense TGGTGCACAGTTTCTGGCAG; 5-10-5 gapmer, wing sugar chemistry not given here, further chemistry not given here) [compound 416852]
Half-life in the liver and kidney [1]: 28 days | % inhibition of human Factor XI mRNA levels (human Factor XI mRNA [2]): 84% | Percent inhibition of human Factor XI mRNA levels (human Factor XI mRNA [3]): 87%

416859 (antisense GACGGCATTGGTGCACAGTT; 5-10-5 gapmer, wing sugar chemistry not given here, further chemistry not given here) [compound 416859]
Half-life in the liver and kidney [1]: 19 days | % inhibition of human Factor XI mRNA levels (human Factor XI mRNA [2]): 90% | Percent inhibition of human Factor XI mRNA levels (human Factor XI mRNA [3]): 85%

416863 (antisense CAGCGGACGGCATTGGTGCA; 5-10-5 gapmer, wing sugar chemistry not given here, further chemistry not given here) [compound 416863]
Half-life in the liver and kidney [1]: 20 days | % inhibition of human Factor XI mRNA levels (human Factor XI mRNA [2]): 83% | Percent inhibition of human Factor XI mRNA levels (human Factor XI mRNA [3]): 86%

ISIS 416858: gapmer of Table 8 (antisense eA*e[5mC]*eG*eG*e[5mC]*dA*dT*dT*dG*dG*dT*dG*d[5mC]*dA*d[5mC]*eA*eG*eT*eT*eT)
Factor XI protein levels (in words) (Factor XI protein [4]; Example 29): time-dependent decrease in protein levels | Inhibition of Factor XI protein relative to the PBS control (Factor XI protein [4]; day 8): 6% | Inhibition of Factor XI protein relative to the PBS control (Factor XI protein [4]; day 15): 16% | Inhibition of Factor XI protein relative to the PBS control (Factor XI protein [4]; day 22): 23% | Inhibition of Factor XI protein relative to the PBS control (Factor XI protein [4]; day 29): 28% | Inhibition of Factor XI protein relative to the PBS control (Factor XI protein [4]; day 36): 35% | Inhibition of Factor XI protein relative to the PBS control (Factor XI protein [4]; day 43): 39% | Inhibition of Factor XI protein relative to the PBS control (Factor XI protein [4]; day 50): 49% | Inhibition of Factor XI protein relative to the PBS control (Factor XI protein [4]; day 57): 60% | Inhibition of Factor XI protein relative to the PBS control (Factor XI protein [4]; day 64): 68% | Inhibition of Factor XI protein relative to the PBS control (Factor XI protein [4]; day 71): 71% | Inhibition of Factor XI protein relative to the PBS control (Factor XI protein [4]; day 78): 73% | Inhibition of Factor XI protein relative to the PBS control (Factor XI protein [4]; day 85): 78% | Inhibition of Factor XI protein relative to the PBS control (Factor XI protein [4]; day −5 (before treatment)): 0% | Inhibition of Factor XI protein relative to the PBS control (Factor XI protein [4]; day −14 (before treatment)): 0% | Factor XI protein levels (in words) (Factor XI protein [5]): time-dependent decrease in protein levels | Factor XI mRNA in liver (in words) (Factor XI mRNA): significant reduction of Factor XI mRNA | IL-1β level ([6]; 25 mg/kg s.c., day 55): 28 pg/mL | MIP-1β level ([6]; 25 mg/kg s.c., day 55): 47 pg/mL | IL-1β level [6, 10]: 103 pg/mL | MIP-1β level [6, 10]: 37 pg/mL | spleen weight (in words) ([7]; Example 29): increase in spleen weight | Kidney weight ([7]; after euthanasia): 13 g | Liver weight ([7]; after euthanasia): 60 g | Spleen weight ([7]; after euthanasia): 12 g | Body weight ([7]; day 1): 2912 g | Body weight ([7]; day 8): 2740 g | Body weight ([7]; day 15): 2760 g | Body weight ([7]; day 22): 2800 g | Body weight ([7]; day 29): 2763 g | Body weight ([7]; day 36): 2584 g | Body weight ([7]; day 43): 2607 g | Body weight ([7]; day 50): 2646 g | Body weight ([7]; day 57): 2617 g | Body weight ([7]; day 64): 2618 g | Body weight ([7]; day 71): 2865 g | Body weight ([7]; day 78): 2713 g | platelet count ([8]; day 8): 391000 µL⁻¹ | platelet count ([8]; day 15): 400000 µL⁻¹ | platelet count ([8]; day 22): 316000 µL⁻¹ | platelet count ([8]; day 29): 336000 µL⁻¹ | platelet count ([8]; day 36): 371000 µL⁻¹ | platelet count ([8]; day 43): 342000 µL⁻¹ | platelet count ([8]; day 50): 331000 µL⁻¹ | platelet count ([8]; day 57): 333000 µL⁻¹ | platelet count ([8]; day 64): 295000 µL⁻¹ | platelet count ([8]; day 71): 286000 µL⁻¹ | platelet count ([8]; day 78): 262000 µL⁻¹ | platelet count ([8]; day 85): 267000 µL⁻¹ | platelet count ([8]; day −5): 463000 µL⁻¹ | platelet count ([8]; day −14): 419000 µL⁻¹

ISIS 445522: microwalk gapmer of Table 51 (antisense eG*e[5mC]*eA*e[5mC]*eA*dG*dT*dT*dT*d[5mC]*dT*dG*dG*e[5mC]*eA*eG*eG*e[5mC])
Factor XI protein levels (in words) (Factor XI protein [5]): time-dependent decrease in protein levels | Body weight (increase over PBS control weight before start of treatment) [9]: 11 g | Kidney weight as percentage of body weight [9]: 1.7% | Liver weight as percentage of body weight [9]: 6% | Spleen weight as percentage of body weight [9]: 0.4% | Factor XI mRNA in liver (in words) (Factor XI mRNA): significant reduction of Factor XI mRNA | IL-1β level ([6]; 25 mg/kg s.c., day 55): 341 pg/mL | MIP-1β level ([6]; 25 mg/kg s.c., day 55): 63 pg/mL | IL-1β level [6, 10]: 188 pg/mL | MIP-1β level [6, 10]: 27 pg/mL

ISIS 445531: microwalk gapmer of Table 51 (antisense eG*eG*e[5mC]*eA*eT*dT*dG*dG*dT*dG*d[5mC]*dA*d[5mC]*eA*eG*eT*eT*eT)
Body weight (increase over PBS control weight before start of treatment) [9]: 10 g | Kidney weight as percentage of body weight [9]: 1.5% | Liver weight as percentage of body weight [9]: 6% | Spleen weight as percentage of body weight [9]: 0.5% | Factor XI mRNA in liver (in words) (Factor XI mRNA): significant reduction of Factor XI mRNA | IL-1β level ([6]; 25 mg/kg s.c., day 55): 155 pg/mL | MIP-1β level ([6]; 25 mg/kg s.c., day 55): 84 pg/mL | IL-1β level [6, 10]: 101 pg/mL | MIP-1β level [6, 10]: 22 pg/mL
